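Briefly, cells in 96-well plates were exposed to five compound concentrations for 48 h, and endpoints were estimated by linear interpolation. Here, GI50 denotes the concentration required for 50% inhibition of growth.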 The source made the active and inactive calls. No stated cut-off is given here; in the data, active = GI50 up to about 1.1 µM and inactive = higher.
How the values were obtained:
Test in all cases: inhibition of tumour cell growth, NCI panel, 48 h
UO-31 = test system: UO-31
HOP-92 = test system: HOP-92
SK-MEL-5 = test system: SK-MEL-5
SF-539 = test system: SF-539
SNB-75 = test system: SNB-75
EKVX = test system: EKVX
SN12C = test system: SN12C
SW-620 = test system: SW-620
HOP-62 = test system: HOP-62
DU-145 = test system: DU-145
SK-MEL-2 = test system: SK-MEL-2
HT-29 = test system: HT-29
NCI-H23 = test system: NCI-H23
MCF7 = test system: MCF7
RXF 393 = test system: RXF 393
SK-OV-3 = test system: SK-OV-3
A549 = test system: A549
UACC-62 = test system: UACC-62
SR = test system: SR
IGROV-1 = test system: IGROV-1

SMILES | GI50 (UO-31) | GI50 (HOP-92) | GI50 (SK-MEL-5) | GI50 (SF-539) | GI50 (SNB-75) | GI50 (EKVX) | GI50 (SN12C) | GI50 (SW-620) | GI50 (HOP-62) | GI50 (DU-145) | GI50 (SK-MEL-2) | GI50 (HT-29) | GI50 (NCI-H23) | GI50 (MCF7) | GI50 (RXF 393) | GI50 (SK-OV-3) | GI50 (A549) | GI50 (UACC-62) | GI50 (SR) | GI50 (IGROV-1)
COc1cnc2oc3ccc(O)cc3c2c1-c1ccccc1 | 66.7 µM (inactive) | > 100 µM (inactive) | 61.9 µM (inactive) | > 100 µM (inactive) | > 100 µM (inactive) | > 100 µM (inactive) | > 100 µM (inactive) | > 100 µM (inactive) | 24 µM (inactive) | > 100 µM (inactive) | > 100 µM (inactive) | 85.1 µM (inactive) | 44.7 µM (inactive) | 39.7 µM (inactive) | > 100 µM (inactive) | > 100 µM (inactive) | > 100 µM (inactive) | – | – | –
Cc1ccc(O)c(C(c2cccc(C(c3cc(C)ccc3O)c3cc(C)ccc3O)c2)c2cc(C)ccc2O)c1 | 1.91 µM (inactive) | – | 2.44 µM (inactive) | 1.75 µM (inactive) | 1.93 µM (inactive) | 1.82 µM (inactive) | 1.83 µM (inactive) | 1.66 µM (inactive) | 2.06 µM (inactive) | 1.44 µM (inactive) | 2.1 µM (inactive) | 1.66 µM (inactive) | 1.75 µM (inactive) | 1.58 µM (inactive) | 1.69 µM (inactive) | 1.87 µM (inactive) | 1.97 µM (inactive) | 1.99 µM (inactive) | 2.73 µM (inactive) | 1.56 µM (inactive)
C1COCCOP2(N3CC3)=NP(N3CC3)(=NP(N3CC3)(N3CC3)=N2)OCCOCCO1 (stereo not drawn) | > 100 µM (inactive) | – | > 100 µM (inactive) | > 100 µM (inactive) | > 100 µM (inactive) | > 100 µM (inactive) | > 100 µM (inactive) | > 100 µM (inactive) | > 100 µM (inactive) | 37.4 µM (inactive) | – | > 100 µM (inactive) | > 100 µM (inactive) | > 100 µM (inactive) | > 100 µM (inactive) | > 100 µM (inactive) | > 100 µM (inactive) | > 100 µM (inactive) | 50.4 µM (inactive) | > 100 µM (inactive)
CC1=NC2(CCCCC2)N(Cl)C(=O)C1SC#N (stereo not drawn) | 18.8 µM (inactive) | – | 18.2 µM (inactive) | 19.5 µM (inactive) | 20.7 µM (inactive) | 17.5 µM (inactive) | 19.4 µM (inactive) | 12.8 µM (inactive) | 22.9 µM (inactive) | 25.2 µM (inactive) | 20 µM (inactive) | 20.7 µM (inactive) | 25.1 µM (inactive) | 23.6 µM (inactive) | 18.3 µM (inactive) | > 10 µM (inactive) | 0.0504 µM (active) | 13.4 µM (inactive) | > 100 µM (inactive) | 18.2 µM (inactive)
O=C1NCN(c2ccccc2)C12CCN(CCc1ccc3[nH]c(=S)[nH]c3c1)CC2 | – | 13.9 µM (inactive) | 17.5 µM (inactive) | 22.1 µM (inactive) | – | 88.5 µM (inactive) | 36.1 µM (inactive) | 11.9 µM (inactive) | > 100 µM (inactive) | 39.7 µM (inactive) | 20.7 µM (inactive) | 29.3 µM (inactive) | 65.9 µM (inactive) | 28.5 µM (inactive) | 13 µM (inactive) | > 100 µM (inactive) | 66.5 µM (inactive) | 64.9 µM (inactive) | – | 37.6 µM (inactive)
CC(=O)OC[C@@H](OC(C)=O)[C@H](OC(C)=O)[C@@H]1OC(C)(C)O[C@@H]1C1SCCCS1 | > 100 µM (inactive) | – | > 100 µM (inactive) | > 100 µM (inactive) | > 100 µM (inactive) | > 100 µM (inactive) | – | > 100 µM (inactive) | > 100 µM (inactive) | > 100 µM (inactive) | > 100 µM (inactive) | – | > 100 µM (inactive) | > 100 µM (inactive) | > 100 µM (inactive) | > 100 µM (inactive) | > 100 µM (inactive) | > 100 µM (inactive) | > 100 µM (inactive) | –
CC(C)(C)OC(=O)Nc1cc(-c2ccccc2)co1 | > 100 µM (inactive) | 25.8 µM (inactive) | 96.8 µM (inactive) | > 100 µM (inactive) | – | > 100 µM (inactive) | 95.9 µM (inactive) | > 100 µM (inactive) | > 100 µM (inactive) | > 100 µM (inactive) | 71.1 µM (inactive) | – | > 100 µM (inactive) | 83.8 µM (inactive) | – | > 100 µM (inactive) | 78.2 µM (inactive) | > 100 µM (inactive) | – | 87.5 µM (inactive)
CC(=O)/N=C1\NC(=O)/C(=C/c2ccccc2Cl)N1C | > 100 µM (inactive) | > 100 µM (inactive) | > 100 µM (inactive) | > 100 µM (inactive) | > 100 µM (inactive) | 26.4 µM (inactive) | > 100 µM (inactive) | > 100 µM (inactive) | > 100 µM (inactive) | > 100 µM (inactive) | > 100 µM (inactive) | > 100 µM (inactive) | > 100 µM (inactive) | > 100 µM (inactive) | > 100 µM (inactive) | > 100 µM (inactive) | > 100 µM (inactive) | > 100 µM (inactive) | – | > 100 µM (inactive)
Cc1nn(C(=O)Cc2ccccc2)c2c1C(c1ccc(O)cc1)SC(=N)N2 (stereo not drawn) | > 100 µM (inactive) | – | > 100 µM (inactive) | > 100 µM (inactive) | 44.6 µM (inactive) | > 100 µM (inactive) | > 100 µM (inactive) | > 100 µM (inactive) | > 100 µM (inactive) | > 100 µM (inactive) | – | > 100 µM (inactive) | > 100 µM (inactive) | > 100 µM (inactive) | – | > 100 µM (inactive) | > 100 µM (inactive) | > 100 µM (inactive) | > 100 µM (inactive) | > 100 µM (inactive)
CCn1c(SCC(=O)NNC(=S)Nc2ccc(Cl)cc2)nc2ccccc2c1=O | 32 µM (inactive) | – | > 100 µM (inactive) | 58.1 µM (inactive) | > 100 µM (inactive) | > 100 µM (inactive) | 47.5 µM (inactive) | 95.1 µM (inactive) | 79.1 µM (inactive) | 55.6 µM (inactive) | 74.8 µM (inactive) | – | 45.3 µM (inactive) | 56.2 µM (inactive) | 26.2 µM (inactive) | 53.8 µM (inactive) | 40.6 µM (inactive) | 35.2 µM (inactive) | 43.9 µM (inactive) | > 100 µM (inactive)
O=c1oc(-c2ccccc2)c(-c2ccccc2)n1-c1ccc(Br)cc1 | > 100 µM (inactive) | 35.4 µM (inactive) | 76.6 µM (inactive) | 20.6 µM (inactive) | 12 µM (inactive) | 54.1 µM (inactive) | 71.3 µM (inactive) | > 100 µM (inactive) | 33.2 µM (inactive) | 21 µM (inactive) | > 100 µM (inactive) | > 100 µM (inactive) | 19.8 µM (inactive) | > 100 µM (inactive) | 36.3 µM (inactive) | 31.1 µM (inactive) | 54.5 µM (inactive) | 73.8 µM (inactive) | – | 29.6 µM (inactive)
COC(=O)[C@@]12CC3CN(Cc4c1[nH]c1ccccc41)C2CC3=O | – | 26.7 µM (inactive) | – | > 100 µM (inactive) | 74.8 µM (inactive) | > 100 µM (inactive) | > 100 µM (inactive) | > 100 µM (inactive) | > 100 µM (inactive) | > 100 µM (inactive) | > 100 µM (inactive) | > 100 µM (inactive) | > 100 µM (inactive) | > 100 µM (inactive) | > 100 µM (inactive) | > 100 µM (inactive) | > 100 µM (inactive) | > 100 µM (inactive) | – | > 100 µM (inactive)
Nc1nc(Cl)cc(OCC2(CO)CCCC2)n1 | – | > 100 µM (inactive) | > 100 µM (inactive) | > 100 µM (inactive) | > 100 µM (inactive) | 91.4 µM (inactive) | > 100 µM (inactive) | > 100 µM (inactive) | > 100 µM (inactive) | > 100 µM (inactive) | – | > 100 µM (inactive) | > 100 µM (inactive) | > 100 µM (inactive) | 79.8 µM (inactive) | – | > 100 µM (inactive) | – | – | > 100 µM (inactive)
COc1ccc(S(=O)(=O)O)cc1-n1nc(C(=O)Nc2ccccc2)n[n+]1-c1cc(S(=O)(=O)[O-])ccc1OC | > 100 µM (inactive) | – | > 100 µM (inactive) | > 100 µM (inactive) | > 100 µM (inactive) | > 100 µM (inactive) | > 100 µM (inactive) | > 100 µM (inactive) | > 100 µM (inactive) | > 100 µM (inactive) | – | > 100 µM (inactive) | > 100 µM (inactive) | > 100 µM (inactive) | > 100 µM (inactive) | > 100 µM (inactive) | > 100 µM (inactive) | > 100 µM (inactive) | > 100 µM (inactive) | > 100 µM (inactive)
Cc1cc(S(=O)(=O)Nc2nc(N)n(-c3ccccn3)n2)c(S)cc1Cl | > 100 µM (inactive) | – | > 100 µM (inactive) | > 100 µM (inactive) | > 100 µM (inactive) | > 100 µM (inactive) | > 100 µM (inactive) | > 100 µM (inactive) | > 100 µM (inactive) | > 100 µM (inactive) | > 100 µM (inactive) | > 100 µM (inactive) | – | > 100 µM (inactive) | > 100 µM (inactive) | > 100 µM (inactive) | > 100 µM (inactive) | > 100 µM (inactive) | > 100 µM (inactive) | > 100 µM (inactive)

Source: ChEMBL document CHEMBL1201862, “PubChem BioAssay data set” (2004)
